± gives the expanded uncertainty stated by the source.
How the values were obtained:
[1] = 101 kPa, Liquid; for viscosity: Concentric cylinders viscometry; for mass density: Vibrating tube method
[2] = wn = mass fraction of the nth substance listed; conditions: 101 kPa, Liquid; for viscosity: Concentric cylinders viscometry; for mass density: Vibrating tube method

CCCCn1cc[n+](C)c1.F[B-](F)(F)F [1-butyl-3-methylimidazolium tetrafluoroborate]
[1]
Conditions	mass density [kg/m3]	viscosity [mPa·s]
303.15 K	1191.3 ± 1.3	71.63 ± 0.8
313.15 K	1182.3 ± 1.2	46.96 ± 0.5
333.15 K	1166.7 ± 1.2	23.8 ± 0.27
353.15 K	1154.9 ± 1.2	13.94 ± 0.18
363.15 K	1139.4 ± 1.1	11.32 ± 0.16

CCn1cc[n+](C)c1.O=S(=O)([O-])C(F)(F)F [1-ethyl-3-methylimidazolium trifluoromethanesulfonate]
[1]
Conditions	mass density [kg/m3]	viscosity [mPa·s]
303.15 K	1381.8 ± 1.7	36.14 ± 0.39
313.15 K	1371.7 ± 1.7	26.65 ± 0.3
333.15 K	1350.9 ± 1.6	16.45 ± 0.2
353.15 K	1338.7 ± 1.6	12.17 ± 0.16
363.15 K	1326 ± 1.6	11.14 ± 0.15

CCCCn1cc[n+](C)c1.N#CN=C=[N-] [1-butyl-3-methylimidazolium dicyanamide]
[1]
Conditions	mass density [kg/m3]	viscosity [mPa·s]
303.15 K	1055.1 ± 1	23.92 ± 0.27
313.15 K	1049.3 ± 0.9	17.12 ± 0.2
333.15 K	1037.1 ± 0.9	10.49 ± 0.15
353.15 K	1024.2 ± 0.9	6.773 ± 0.12
363.15 K	1019.3 ± 0.9	5.523 ± 0.12

CN(CCO)CCO [N-methyldiethanolamine] + O
[2]
Conditions	mass density, 303.15 K [kg/m3]	mass density, 313.15 K [kg/m3]	mass density, 333.15 K [kg/m3]	mass density, 353.15 K [kg/m3]	mass density, 363.15 K [kg/m3]	viscosity, 303.15 K [mPa·s]	viscosity, 313.15 K [mPa·s]	viscosity, 333.15 K [mPa·s]	viscosity, 353.15 K [mPa·s]	viscosity, 363.15 K [mPa·s]
w1 = 0.234	1018.7 ± 6	1014.1 ± 6	1003 ± 6	987.2 ± 6	981.3 ± 6	2.285 ± 0.1	1.612 ± 0.1	1.418 ± 0.1	1.121 ± 0.1	1.112 ± 0.1
w1 = 0.459	1018.3 ± 6	1011 ± 6	1005.2 ± 6	989.6 ± 6	971.8 ± 6	2.85 ± 0.33	2.238 ± 0.23	1.621 ± 0.13	1.485 ± 0.11	1.337 ± 0.1

CN(CCO)CCO [N-methyldiethanolamine]
[1]
Conditions	mass density [kg/m3]	viscosity [mPa·s]
303.15 K	1034.7 ± 0.5	58.62 ± 0.47
313.15 K	1027.1 ± 0.5	37.68 ± 0.32
333.15 K	1013 ± 0.5	15.26 ± 0.16
353.15 K	996.3 ± 0.5	6.756 ± 0.11
363.15 K	993.9 ± 0.5	4.539 ± 0.11

From the NIST ThermoML archive (doi:10.1021/je300628e)
